Laboratory results taken from patent US20040097576A1, “Use of tryptophan derivatives for the specific cytostatic treatment of serotonin-producing tumors” (priority 2001, published 2004).

Experiments:
[1] = system: tryptophan-hydroxylase (TPH) and aromatic-amino acid-decarboxylase (AAAD); assay: Intracellular enzymatic metabolisation by TPH and AAAD; type: in vitro ADME; conditions: 7-HTP to 5,7-DHT, 6-HTP to 5,6-DHT
From the text: The invention is put into practice according to the claims. […] These two enzymes, TPH and AAAD, are expressed extraordinarily strong in serotonin-producing tumor cells. Due to the unequally higher TPH-expression in these tumor cells in comparison with normal serotonin-producing tissues, only marginally toxic effects occur in these tissues.
FIG. 1. Reaction scheme of enzymatic metabolisation of 7-hydroxytryptophan (7-HTP) to 5,7-dihydroxytryptamine (5,7-DHT). The rate-limiting first step is mediated by the enzyme tryptophan-hydroxylase (TPH) and is followed by a rapid decarboxylation by the aromatic-amino acid-decarboxylase (AAAD).

[2] = system: serotonin-producing cells NG108; assay: Toxicity of 7-HTP on serotonin-producing cells NG108 (FIG. 2); type: cell-based
From the text: (§1) FIG. 2. […] In contrast, the growth of COS7-cells that produce no serotonin is not affected by 7-HTP.

[3] = system: serotonin-producing mastocytoma cells P815; assay: Toxicity of 7-HTP on mastocytoma cells P815 (FIG. 3); type: cell-based
[4] = system: serotonin-producing human carcinoid cells BON; assay: Toxicity of 7-HTP on human carcinoid cells BON (FIG. 4); type: cell-based
COS7-cells = assay: Growth of COS7-cells that produce no serotonin (FIG. 2); type: cell-based
From the text: as §1

Compound | intracellular metabolisation to dihydroxytryptamine toxin [1] | toxicity on the serotonin-producing cells NG108 ([2]; NG108 cells, FIG. 2) | toxicity on the serotonin-producing mastocytoma cells P815 [3] | toxicity on the serotonin-producing human carcinoid cells BON [4] | growth of COS7-cells (COS7-cells) | protection of 7-HTP-sensitive NG108-cells against 7-HTP toxicity ([2]; NG108 cells treated with 7-HTP plus TPH-inhibitor, no 5,7-DHT synthesised intracellularly)
N[C@@H](Cc1c[nH]c2c(O)cccc12)C(=O)O [7-HTP, 7-hydroxytryptophan] | metabolised intracellularly | Specific toxicity | rapidly and specifically killed | rapidly and specifically killed | not affected | –
N[C@@H](Cc1c[nH]c2cc(O)ccc12)C(=O)O [6-HTP, 6-hydroxytryptophan] | metabolised intracellularly | – | – | – | – | –
N[C@@H](Cc1ccc(Cl)cc1)C(=O)O [PCPA, p-chlorophenylalanin, reference compound] | – | – | – | – | – | can be protected
